Values quoted from earlier work, collected in patent US20230149389A1, “METHODS OF REDUCING MORTALITY IN SUBJECTS SUFFERING FROM AN UNDERLYING DISEASE OR CONDITION BY ADMINISTRATION OF METHYLNALTREXONE” (Bausch Health Ireland Limited, priority 2020, published 2023).

Assays:
[1] = cited from earlier work
[2] = system: human dermal endothelial and pulmonary cells; conditions: at clinically relevant levels; cited from earlier work
murine model of sepsis = conditions: mouse, in vivo; cited from earlier work

SMILES	incidence rate for MI ([1]; placebo 0%) [%]	incidence rate for cardiovascular events ([1]; placebo 1.12%) [%]	angiogenic activity relative to vascular endothelial growth factor [2] [%]	mortality in murine model of sepsis (murine model of sepsis)
C[C@H]1CN(C[C@H](Cc2ccccc2)C(=O)NCC(=O)O)CC[C@@]1(C)c1cccc(O)c1 [alvimopan]	1.30	2.60		
CN1CC[C@]23c4c5ccc(O)c4O[C@H]2[C@@H](O)C=C[C@H]3[C@H]1C5 [morphine]			70	increased mortality
